Laboratory results reported in ChEMBL document CHEMBL1156829 (Proc Natl Acad Sci U S A, 2008).

Key:
[1] = system: Plasmodium falciparum; experiment: NOVARTIS: Inhibition of Plasmodium falciparum 3D7 (drug-susceptible) proliferation in erythrocyte-based infection assay; assay type: functional, organism-based; settings: Plasmodium falciparum, 3D7
[2] = system: Plasmodium falciparum; experiment: NOVARTIS: Inhibition of Plasmodium falciparum W2 (drug-resistant) proliferation in erythrocyte-based infection assay; assay type: functional, organism-based; settings: Plasmodium falciparum, W2; read-out: EC50
[3] = NOVARTIS: Cytotoxicity against human hepatocellular carcinoma cell line (Huh7); assay type: toxicity, cell-based, Huh-7; settings: Huh7 cells (hepatocellular carcinoma cell line)

| SMILES | EC50 [1] [nM] | EC50 [2] [nM] | CC50 [3] [µM] |
| --- | --- | --- | --- |
| C=C[C@H]1CN2CC[C@H]1C[C@@H]2[C@@H](OC(=O)c1ccc(OC)cc1)c1ccnc2ccccc12 | 244 | 18.5 | 2.61 |
| Cc1ncc(CN2CCC(C(=O)Nc3ccc(-c4nc5ccccc5o4)cc3)CC2)s1 | 740 | 721 | > 100 |
| COC1C(OC2OC(C)C(O)C(C)(O)C2OC)c2c(cc3c(c2O)C(=O)c2c(ccc4c2OC2OC4(C)C(OC4CC(C)([N+](=O)[O-])C(OC5OC(C)C(O)C(C)(O)C5OC)C(C)O4)C(N(C)C)C2O)C3=O)CC1(C)O (centres undefined) | 131 | 70.1 | > 10 |
| O=C(O)C1Cc2c([nH]c3ccccc23)C(c2ccc(Cl)cc2Cl)N1 (centres undefined) | 1020 | 688 | > 100 |
| CCNC(=O)C=Cc1ccc(C(C)(C)C)cc1 | 616 | 719 | > 100 |
| O=C(NCCCCCCCCCCNC(=O)Nc1ccc(C2=NCCCN2)cc1)Nc1ccc(C2=NCCCN2)cc1 | 54.2 | 69.3 | > 10 |
| Cc1nc2ccc(Cl)cc2c(O)c1I | 3470 | 714 | > 100 |
| COc1ccc2nc(C)cc(Nc3cccc(O)c3)c2c1 | 228 | 347 | 51 |
| O=C(CSc1nccn1C1CCCC1)Nc1cc(C(F)(F)F)ccc1Cl | 545 | 714 | > 100 |
| CC(=O)c1cccc(S(=O)(=O)NCCCNc2nc3cc(C)cc(C)c3cc2C#N)c1 | 1150 | 698 | > 100 |
| COc1ccc(-c2csc3ncnc(Cl)c23)cc1OC | 2320 | 723 | > 100 |
| Cc1[nH]c2ccccc2c(=O)c1Br | 532 | 686 | > 100 |
| COc1cc(C=NNc2nc3ccccc3[nH]2)ccc1O | 205 | 307 | 43.1 |
| COC(=O)C1=C(C)NC2=C(C(=O)CC(c3ccc(OC)c(OC)c3)C2)C1c1ccc([N+](=O)[O-])cc1 (centres undefined) | 2680 | 704 | > 100 |
| COc1ccc(Nc2nc(NN=Cc3cccc(F)c3)nc(Nc3ccc([N+](=O)[O-])cc3)n2)cc1 | 662 | 704 | > 100 |
| CCCN1CCc2c(sc3nc(SCC(=O)OC)nc(N)c23)C1 | 1660 | 710 | > 100 |
| CCN(CC)CCNC(=O)c1cc(-c2cc3ccccc3s2)cc(-n2cnnn2)c1 | 61.6 | 151 | 21.3 |
| Oc1c(CN2CCCCC2)ccc2ccccc12 | 5630 | 727 | > 100 |
| COc1cc2c(N3CCOCC3)cc(O)c(CC(=O)Nc3ccccc3)c2cc1OC | 626 | 712 | > 100 |
| COc1ccc(CN2CCN(Cc3ccc(OC)c(C)c3C)C(CCO)C2)c(O)c1 (centres undefined) | 1650 | 319 | > 44.1 |
| COc1ccc(-c2cn3c([n+]2-c2ccccc2)SCC3)cc1 | 582 | 709 | > 100 |
| CCOC(=O)c1c(C)[n+](-c2ccc(C)cc2)c(CC)c2cc(OC)c(OC)cc12 | 702 | 683 | > 94 |
| CC(C)(C)CC(C)(C)Nc1c(-c2ccccc2OC(=O)c2ccc(Cl)c(Cl)c2)nc2ccccn12 | 920 | 72.3 | > 10 |

| SMILES | EC50 [1] [nM] | EC50 [2] [nM] | CC50 [3] [µM] |
| --- | --- | --- | --- |
| CCCCOc1ccc(C=CC(=O)NCc2ccco2)cc1 | 1070 | 717 | > 100 |
| COc1cccc(NC(=O)Cn2c(C)c(C(C)=O)c3ccccc32)c1 | 1760 | 713 | > 100 |
| CN(C)CCCNC1=NC=NC2C=C(Cl)C=CC12 (centres undefined) | 290 | 713 | > 100 |
| O=C(Nc1ccc(Cl)cc1)Nc1ccc(Br)cn1 | > 12500 | 712 | > 100 |
| COc1ccc(Nc2nc(NN=Cc3cccc(Cl)c3)nc(Nc3ccc([N+](=O)[O-])cc3)n2)cc1 | 603 | 717 | > 100 |
| CCCC(=O)N(CCCC(C)Nc1cc(OC)cc2cccnc12)Cc1ccc(F)cc1 (centres undefined) | 385 | 71.4 | > 10 |
| CN(CCCNc1ccc(C(=O)Nc2ccc(C(F)(F)F)cc2)cc1[N+](=O)[O-])Cc1ccccc1 | 316 | 720 | > 100 |
| CCOC(=O)c1c(CNC)n(C)c2cc(Br)c(O)cc12 | 458 | 691 | > 100 |
| Cc1ccc(C=NNC(=O)c2nnn(-c3nonc3N)c2-c2ccc([N+](=O)[O-])cc2)cc1 | 204 | 503 | > 73 |
| Cc1ccc(F)cc1NC(=O)Cn1c2ccccc2c(=O)c2cc(Cl)ccc21 | 1180 | 694 | > 100 |
| c1ccc(CNc2nc(Nc3ccccc3)nc3ccccc23)cc1 | 158 | 93.4 | 13.5 |
| CCOC(=O)c1ccc(N2CCN(c3cc(C)ccc3C)CC2)c(NC(=O)Nc2ccc(Cl)cc2)c1 | > 3540 | 691 | > 100 |
| CCc1n(CC(=O)OC2CC(C)CCC2C(C)C)c2ccccc2[n+]1C (centres undefined) | 267 | 203 | 29.9 |
| CCOc1ccc2[nH]c(=O)c(CN(CCCN3CCOCC3)C(=S)NCCCN(CC)CC)cc2c1 | 2610 | 679 | > 100 |
| COc1ccc(CCNC(=S)Nc2ccccc2C)cc1OC | 1100 | 698 | > 100 |
| O=C(Cn1cc([N+](=O)[O-])nc1[N+](=O)[O-])N1CCN(c2ccc(F)cc2)CC1 | 1070 | 234 | 33.6 |
| COc1cccc(-c2ccc(O)c(CN(C)C3CCCCC3)c2)n1 | 1150 | 90.3 | > 13 |
| Cc1nc(N2CCN(c3ccccn3)CC2)c2c(C)c(C(=O)Nc3c(F)cccc3F)sc2n1 | 3140 | 694 | > 100 |
| O=C(NC(=CC=Cc1ccccc1)C(=O)N1CCOCC1)c1ccc(Br)cc1 | > 10400 | 683 | > 100 |
| CNc1ccccc1C(=O)N(C)CCc1ccccc1 | > 1250 | 68.3 | > 10 |
| Oc1ccc(-c2ccccn2)cc1CNC1CCN(Cc2ccccc2)CC1 | 411 | 143 | 21 |
| COc1ccc(N2C(=O)[C@@H]3C[C@H]2CN3C(=O)c2cccc(Cn3nc(C)cc3C)c2)cc1Cl | > 1250 | 26.7 | > 3.8 |
| Cc1ccccc1-c1cccc(CN2CCCCC2CCn2cc(C(=O)NC3CC3)nn2)c1 (centres undefined) | 1470 | 685 | > 100 |

| SMILES | EC50 [1] [nM] | EC50 [2] [nM] | CC50 [3] [µM] |
| --- | --- | --- | --- |
| CC(=O)Nc1ccc(C2NC(=O)NC3=Nc4ccccc4SC(c4ccccc4)=C32)cc1 (centres undefined) | 1020 | 689 | > 100 |
| COc1ccc(CNc2cc(-c3ccc(F)c(F)c3)nc3ccnn23)cc1 | 675 | 687 | > 100 |
| CCOc1cccc(Nc2cc(C)nc3ncnn23)c1 | 679 | 729 | > 100 |
| CCOC(=O)C1=C(C)NC2=C(C(=O)C(C(=O)OCC)C(c3ccccc3OC)C2)C1c1cc(OC)c(OC)c(OC)c1 (centres undefined) | 1500 | 713 | > 100 |
| Cc1nnc(Nc2ccc(F)cc2)c2ccccc12 | > 1250 | > 68.9 | > 10 |
| Cc1cccc(N2C(=O)C3C(C2=O)C2(c4ccccc4)C(=O)C3(c3ccccc3)C(c3ccccc3)=C2c2ccccc2)c1 (centres undefined) | 1640 | 700 | > 100 |
| Cc1ccc(-n2c(-c3ccccc3)cc(C=NNC(=O)c3cccc(-n4c(C)ccc4C)c3)c2-c2ccccc2)cc1 | 867 | 684 | > 100 |
| c1ccc(CC[n+]2cc(-c3ccccc3)n3c2CCC3)cc1 | 660 | 684 | > 100 |
| CN(C)c1cc[n+](CC(=O)c2cccs2)cc1 | 649 | 688 | > 100 |
| CCOc1ccc(C(=O)C(CCC(C[N+]2(C)CCCCCC2)C(=O)c2ccc(OCC)cc2)C[N+]2(C)CCCCCC2)cc1 (centres undefined) | 615 | 693 | > 100 |
| Cc1cc(C)[n+](C)n1CC(O)Cn1c2ccccc2c2ccccc21 (centres undefined) | 1220 | 691 | > 100 |
| Cc1cccc(C)c1-n1c(SCc2cccc(F)c2)nc2c(sc(=S)n2-c2c(C)cccc2C)c1=O | 5160 | 728 | > 100 |
| CCCCOc1nc(-c2ccc(OC)cc2)n(C(=O)c2ccccc2OC)n1 | 8970 | 717 | > 100 |
| Fc1ccc(-c2cn3c([n+]2-c2ccccc2)SCC3)cc1 | 1090 | 713 | > 100 |
| COc1ccc(Nc2nc(NN=Cc3cc4c(cc3Br)OCO4)nc(Nc3ccc([N+](=O)[O-])cc3)n2)cc1 | 460 | 684 | > 100 |
| O=C1CN(C(=O)CCC2CCCC2)C(c2ccc(F)cc2)c2cc(Cl)ccc2N1 (centres undefined) | 231 | 180 | 26.3 |
| CC(=O)Nc1nc(C)c(-c2csc(Nc3ccc(C)cc3)n2)s1 | 240 | 166 | 23.6 |
| Cc1c(-c2ccccc2)c2ccccc2n1CCc1ccc(C)[n+](C)c1 | 647 | 690 | > 100 |
| Cc1ccc(C[n+]2cc(-c3ccc(C)cc3)n3c2CCC3)cc1 | 538 | 240 | 34.5 |
| COc1ccc2nc(C)cc(NN=Cc3cccs3)c2c1 | 158 | 134 | 18.4 |
| COc1cccc(-c2ccc(O)c(CN3CCCC(C)C3)c2)n1 (centres undefined) | 543 | 67.9 | > 10 |
| CCCCNC(=O)c1nn(-c2ccc(OC)cc2)c(=O)c2ccccc12 | 2250 | 680 | > 100 |
